The record followed here is patent US20240246968A1, “SMALL MOLECULE INHIBITORS OF KRAS G12C MUTANT” (Merck Sharp & Dohme LLC, priority 2021, published 2024).

The target of assay [1] is T1, interaction between recombinant K-Ras4B G12C mutant protein and cRAF RAS-binding domain (cRAF-RBD) (Homo sapiens, UniProt P01116, G12C).
T1 construct: made in house; host or cells: E. coli
As to the kind of experiment: Inhibitory activity on interaction between KRAS G12C and cRAF (Alpha technology). In kind it is biochemical. The conditions noted are these: GMPPNP-bound KRAS G12C incubated with compound at 25° C. for 1 hour, then cRAF-RBD; Alpha signal. The essentials: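 GMPPNP-loaded His-tagged KRAS G12C (aa 1-169, E. coli) preincubated with compound 1 h at 25° C in Tris pH 7.5, 100 mM NaCl, 1 mM MgCl2, TCEP, 0.1% Tween 20; cRAF-RBD (aa 50-132) added, 1.5 h RT, Alpha signal read. DMSO = 0%, GDP-bound KRAS = 100% inhibition; IC50 from dose titration fit.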

The subject of assay [2] is MIA PaCa-2 cells. In words: Growth inhibition activity on KRAS-G12C mutant cell line (MIA PaCa-2), CellTiter-Glo 3D. In kind it is cell-based, human. The conditions noted are these: MIA PaCa-2, 3-day culture with compound. The essentials: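 Cells in RPMI1640 with 10% FBS were seeded in U-bottom plates and cultured 1 day at 37 °C, 5% CO2, then exposed to compound (0.2% DMSO final) for 3 more days. Viability read by CellTiter-Glo 3D luminescence; IC50 from growth inhibition relative to untreated wells.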

Assay [3] concerns the target Gppcp-bound recombinant K-Ras4B G12C mutant protein (amino acids 1-169, C51S/C80L/C118S) (Homo sapiens, UniProt P01116, C118S/C51S/C80L/G12C). In words: KRASG12C binding assay (LC-MS, compound binding rate). The conditions noted are these: test compound final concentration 0.5 μM, 25° C., 1 hour. In short, it runs like this: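 Gppcp-bound K-Ras4B G12C (1-169; C51S/C80L/C118S), 50 nM in TBS with 0.1 mM TCEP, 0.25 mM MgCl2, 50 μM Gppcp, exposed to compound at 0.5 μM final for 1 h at 25 °C. Quenched with formic acid and analysed by intact-protein ESI LC-MS. Binding rate is the mono-adduct signal over total KRAS signal; graded A (≥80%) to E (<20%).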

The term IC50 denotes the point on the concentration scale where inhibition reaches its midpoint. As for `COc1c(-c2cc(F)cn3c(C(=O)c4cc(F)c(NC(=O)/C=C/CNC5(C)CC5)c(F)c4)cnc23)c(C(F)(F)F)cc2c1nc(C)n2C` (single isomer, unassigned) [Example 112-2, (E)-N-(2,6-difluoro-4-(6-fluoro-8-(4-methoxy-1,2-dimethyl-6-(trifluoromethyl)-1H-benzo[d]imidazol-5-yl)imidazo[1,2-a]pyridine-3-carbonyl)phenyl)-4-((1-methylcyclopropyl)amino)but-2-enamide], the IC50 stood at 362 nM in assay [1] and 532 nM in assay [2]. Further, the binding rate result in assay [3] is listed as “A (A binding rate of 80% or more is rated “A”)”.
Turning to `COc1cc2c(ncn2C)c(Cl)c1-c1cccn2c(C(=O)c3cc(F)c(NC(=O)/C=C/CN[C@H]4CC[C@H](OC)CC4)c(F)c3)ccc12` (single isomer, unassigned) [Example 41-2, (E)-N-(4-(8-(4-chloro-6-methoxy-1-methyl-1H-benzo[d]imidazol-5-yl)indolizine-3-carbonyl)-2,6-difluorophenyl)-4-(((1r,4r)-4-methoxycyclohexyl)amino)but-2-enamide], the IC50 stood at 74 nM in assay [1] and 50 nM in assay [2]. The binding rate result in assay [3] was “A (A binding rate of 80% or more is rated “A”)”.
For `CO[C@H](C)c1nc2c(Cl)c(-c3cccn4c(C(=O)c5cc(F)c(NC(=O)/C=C/CN[C@H]6CC[C@H](OC)CC6)c(F)c5)ccc34)c(C)cc2n1C` (single isomer, unassigned) [Example 47], the IC50 in assay [1] came to 16 nM; in assay [2] it was 75 nM. In addition, in assay [3], the binding rate result is “A (A binding rate of 80% or more is rated “A”)”.
Turning to `CO[C@H]1CC[C@H](NC/C=C/C(=O)Nc2c(F)cc(C(=O)c3c[nH]c4c(-c5cc6nc(C)n(C)c6cc5C(F)(F)F)cccc34)cc2F)CC1` [Example 45, (E)-N-(4-(7-(1,2-dimethyl-6-(trifluoromethyl)-1H-benzo[d]imidazol-5-yl)-1H-indole-3-carbonyl)-2,6-difluorophenyl)-4-(((1r,4r)-4-methoxycyclohexyl)amino)but-2-enamide], the IC50 in assay [1] turned out to be 76 nM; in assay [2] (Homo sapiens, MIA PaCa-2, 72 h) it was 67 nM. For the same compound, in assay [3], the binding rate result is reported as “A (A binding rate of 80% or more is rated “A”)”.
Regarding `Cc1nc2cc(-c3cccn4c(C(=O)c5cc(F)c(NC(=O)/C=C/CNC6CCOC6)c(F)c5)ccc34)c(C(F)(F)F)cc2n1C` (stereo not drawn) [Example 77, (E)-N-(4-(8-(1,2-dimethyl-6-(trifluoromethyl)-1H-benzo[d]imidazol-5-yl)indolizine-3-carbonyl)-2,6-difluorophenyl)-4-((tetrahydrofuran-3-yl)amino)but-2-enamide], the IC50 in assay [1] is 42 nM; in assay [2] (Homo sapiens, MIA PaCa-2, 72 h), 71 nM. Further, in assay [3], the binding rate result is “A (A binding rate of 80% or more is rated “A”)”.
`Cc1nc2cc(-c3cccn4c(C(=O)c5cc(F)c(NC(=O)/C=C/CNC67CCC(F)(CC6)CC7)c(F)c5)ccc34)c(C(F)(F)F)cc2n1C` [Example 85, (E)-N-(4-(8-(1,2-dimethyl-6-(trifluoromethyl)-1H-benzo[d]imidazol-5-yl)indolizine-3-carbonyl)-2,6-difluorophenyl)-4-((4-fluorobicyclo[2.2.2]octan-1-yl)amino)but-2-enamide]: the half-inhibitory concentration (IC50) stood at 45 nM in assay [1] and 110 nM in assay [2] (Homo sapiens, MIA PaCa-2, 72 h). Moreover, in assay [3], the binding rate entry is given as “A (A binding rate of 80% or more is rated “A”)”.
As to `Cc1nc2cc(-c3cccn4c(C(=O)c5cc(F)c(NC(=O)/C=C/CN[C@@H]6CCC[C@H](F)C6)c(F)c5)ccc34)c(C(F)(F)F)cc2n1C` (racemic) [Example 94, (E)-N-(4-(8-(1,2-dimethyl-6-(trifluoromethyl)-1H-benzo[d]imidazol-5-yl)indolizine-3-carbonyl)-2,6-difluorophenyl)-4-(((1R,3S)-3-fluorocyclohexyl)amino)but-2-enamide and (E)-N-(4-(8-(1,2-dimethyl-6-(trifluoromethyl)-1H-benzo[d]imidazol-5-yl)indolizine-3-carbonyl)-2,6-difluorophenyl-4-(((1S,3R)-3-fluorocyclohexyl)amino)but-2-enamide], the IC50 in assay [1] amounted to 83 nM; in assay [2] (Homo sapiens, MIA PaCa-2, 72 h), 280 nM. The binding rate result in assay [3] is “A (A binding rate of 80% or more is rated “A”)”.
Regarding `Cc1cc2c(ncn2C)c(C)c1-c1cccn2c(C(=O)c3cc(F)c(NC(=O)/C=C/CNC(C)(C)C)c(F)c3)ccc12` [Example 29, (E)-4-(tert-butylamino)-N-(2,6-difluoro-4-(8-(1,4,6-trimethyl-1H-benzo[d]imidazol-5-vi)indolizine-3-carbonyl)phenyl)but-2-enamide], the IC50 came out at 90 nM in assay [1] and 120 nM in assay [2] (Homo sapiens, MIA PaCa-2, 72 h). Besides, the binding rate entry in assay [3] is listed as “A (A binding rate of 80% or more is rated “A”)”.
Consider `Cc1nc2cc(-c3cccn4c(C(=O)c5cc(F)c(NC(=O)/C=C/CN[C@H]6CCOC6)c(F)c5)ccc34)c(C(F)(F)F)cc2n1C` [Example 92], for which the IC50 in assay [1] came out at 80 nM; in assay [2] (Homo sapiens, MIA PaCa-2, 72 h), 120 nM. Also, the binding rate entry in assay [3] is on record as “A (A binding rate of 80% or more is rated “A”)”.
The like results for `Cc1cc2c(nc(CC#N)n2C)c(Cl)c1-c1cccn2c(C(=O)c3cc(F)c(NC(=O)/C=C/CNC(C)(C)C)c(F)c3)ccc12` [Example 74, (E)-4-(tert-butylamino)-N-(4-(8-(4-chloro-2-(cyanomethyl)-1,6-dimethyl-1H-benzo[d]imidazol-5-yl)indolizine-3-carbonyl)-2,6-difluorophenyl)but-2-enamide] were, in that order, 64 nM, 65 nM and “A (A binding rate of 80% or more is rated “A”)”.
In the case of `CO[C@H]1CC[C@H](NC/C=C/C(=O)Nc2c(F)cc(C(=O)c3cc(C(=O)N(C)C)c4c(-c5c(C)cc6c(nc(C)n6C)c5Cl)cccn34)cc2F)CC1` [Example 106, 8-(4-chloro-1,2,6-trimethyl-1H-benzo[d]imidazol-5-yl)-3-(3,5-difluoro-4-((E)-4-(((1r,4r)-4-methoxycyclohexyl)amino)but-2-enamido)benzol)-N,N-dimethylindolizine-1-carboxamide], the IC50 came to 31.1 nM in assay [1] and 134 nM in assay [2] (Homo sapiens, MIA PaCa-2, 72 h). The binding rate result in assay [3] is “A (A binding rate of 80% or more is rated “A”)”.
On to `CO[C@H]1CC[C@H](NC/C=C/C(=O)Nc2c(F)cc(C(=O)c3ccc4c(-c5c(C)cc6c(ncn6C)c5Cl)cccn34)cc2F)CC1` (single isomer, unassigned) [Example 12-2, (E)-N-(4-(8-(4-chloro-1,6-dimethyl-1H-benzo[d]imidazol-5-yl)indolizine-3-carbonyl)-2,6-difluorophenyl)-4-(((1r,4r)-4-methoxycyclohexyl)amino)but-2-enamide], for which the IC50 turned out to be 160 nM in assay [1] and 270 nM in assay [2]. In addition, the binding rate entry in assay [3] was “B (a binding rate of 60% or more and less than 80% is rated “B”)”.
For the compound `COc1c(-c2cccn3c(C(=O)c4cc(F)c(NC(=O)/C=C/CN[C@H]5CC[C@H](OC)CC5)c(F)c4)ccc23)c(C(F)(F)F)cc2c1nc(C)n2C` (single isomer, unassigned) [Example 60-1, (E)-N-(2,6-difluoro-4-(8-(4-methoxy-1,2-dimethyl-6-(trifluoromethyl)-1H-benzo[d]imidazol-5-yl)indolizine-3-carbonyl)phenyl)-4-(((1r,4r)-4-methoxycyclohexyl)amino)but-2-enamide], the IC50 in assay [1] and in assay [2] was 1600 nM each time. Besides, the binding rate entry in assay [3] was “A (A binding rate of 80% or more is rated “A”)”.
